A short description of the data set: Effect of excipients on suppression of related substance formation (compound (IV) alone or mixed with excipient, stored at 60° C. for two weeks, HPLC). Format: physicochemical. Particulars: compound (IV) only; for Relative amount (%) of related substance C after storage of 60° C./2 W: 60° C. two weeks. On the procedure: Effect of excipients on suppression of related substance formation was examined. The excipients were physically (dry) mixed or were wet-kneaded using purified water with the compound (IV) in designated ratios in Table 1. The wet-kneaded materials were dried at 60° C. with ventilation. The dried materials were subdivided in glass bottles and the bottles were capped. The capped samples were stored at 60° C. for two weeks and the effect on suppression of related substance formation was estimated by the increased amount of related substances.
The relative amounts of the related substances in a 25 mg tablet obtained in the following Examples were determined by HPLC under the following conditions.
Detector: Ultraviolet spectrophotometer (wavelength: 245 nm)
Column: Unison UK-C18, 3 μm, 4.6×100 mm (Imtakt)
Column temperature: 40° C. Solution A: 0.1% trifluoroacetic acid solution
Flow rate: About 1.0 mL/min
• Compound (IV): 9 to 10 min; • Related substance A: 20 to 21 min; • Related substance B: 21 to 22 min; • Related substance C: 22 to 23 min; • Related substance D: 28 to 29 min; • Related substance E: 36 to 37 min. Injection volume: 10 μL Analytical time: 45 min
Related substances of compound (IV) were calculated by the following equation.
As: Peak area of compound (IV) in a standard solution Ai: Peak area of individual related substance ΣAi: Sum of peak area of individual related substance

Consider `C[C@@]1(c2cc(NC(=O)c3ccc(C#N)cn3)ccc2F)C=CSC(N)=N1` [compound (IV)], for which the “Relative amount (%) of related substance C after storage of 60° C./2 W” value reads like this: (milled, capped glass bottle, % peak area of HPLC) 0.19%; (wet-kneaded) 0.16%. For the same molecule, the “Relative amount (%) of related substance C, Initial” value (milled, before storage) is reported as “(Initial: 0.05%)”.

(Values after US20190060325A1, “STABILIZED SOLID DOSAGE FORM” (SHIONOGI & CO., LTD., priority 2016, published 2019).)
